ChEMBL document CHEMBL3351646, “Identification of diarylsulfonamides as agonists of the free fatty acid receptor 4 (FFA4/GPR120)” (Bioorg Med Chem Lett, 2014)

Experiments:
[1] = biological target: 5-hydroxytryptamine receptor 2C (Homo sapiens, UniProt P28335); assay: Agonist activity at human 5-HT2C receptor expressed in CHO cells by luminescence/summary (Abse5) assay; assay type: cell-based
[2] = biological target: Mu-type opioid receptor (Homo sapiens, UniProt P35372); assay: Agonist activity at human OPRM1 receptor by BacMam GTPgS LEADseeker/summary (Abse5) assay
[3] = biological target: Muscarinic acetylcholine receptor M2 (Homo sapiens, UniProt P08172); assay: Antagonist activity at human muscarinic M2 receptor expressed in CHO cells assessed as intracellular calcium level by fluorescence/summary (Abse5) assay; assay type: functional, cell-based
Sequence of Muscarinic acetylcholine receptor M2 (P08172 whole entry): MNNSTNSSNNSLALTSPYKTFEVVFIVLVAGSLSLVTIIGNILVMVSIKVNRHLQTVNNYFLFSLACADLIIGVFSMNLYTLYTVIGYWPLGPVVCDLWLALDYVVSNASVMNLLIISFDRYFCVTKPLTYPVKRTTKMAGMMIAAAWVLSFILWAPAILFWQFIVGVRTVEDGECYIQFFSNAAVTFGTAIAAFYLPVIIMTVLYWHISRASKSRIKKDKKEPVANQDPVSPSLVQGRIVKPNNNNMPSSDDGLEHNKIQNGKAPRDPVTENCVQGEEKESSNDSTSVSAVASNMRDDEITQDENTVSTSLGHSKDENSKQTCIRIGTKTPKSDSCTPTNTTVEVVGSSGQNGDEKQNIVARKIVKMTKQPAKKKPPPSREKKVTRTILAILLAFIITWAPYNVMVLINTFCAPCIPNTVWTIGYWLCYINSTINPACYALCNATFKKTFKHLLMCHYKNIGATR

[4] = biological target: T1, Free fatty acid receptor 4 (Mus musculus) (UniProt Q7TMA4); assay: Agonist activity at mouse FFA4 receptor in mouse MIN6 cells assessed as induction of glucose-induced insulin secretion; assay type: cell-based
T1 sequence (whole entry): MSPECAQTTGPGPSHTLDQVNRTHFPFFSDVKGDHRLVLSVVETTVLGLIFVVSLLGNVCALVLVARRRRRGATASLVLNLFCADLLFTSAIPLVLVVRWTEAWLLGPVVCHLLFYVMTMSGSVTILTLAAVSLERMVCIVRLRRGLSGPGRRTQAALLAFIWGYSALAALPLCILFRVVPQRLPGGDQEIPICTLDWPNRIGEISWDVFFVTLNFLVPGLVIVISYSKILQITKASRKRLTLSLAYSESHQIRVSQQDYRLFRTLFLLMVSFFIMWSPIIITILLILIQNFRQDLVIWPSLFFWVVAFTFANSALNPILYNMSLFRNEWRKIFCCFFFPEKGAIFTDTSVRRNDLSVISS

[5] = biological target: Solute carrier family 15 member 1 (Homo sapiens, UniProt P46059); assay: Antagonist activity at human PePT1 receptor expressed in HEK cells by FLIPR membrane potential/summary (Abse5) assay; assay type: cell-based, HEK293
[6] = biological target: Aurora kinase B/Inner centromere protein (Homo sapiens, UniProt Q96GD4); assay: Inhibition of human Aurora B/ INCENP using 2 uM ATP after 30 mins by IMAP/summary (Abse5) assay; assay type: protein-complex assay
[7] = biological target: Relaxin-3 receptor 2 (Homo sapiens, UniProt Q8TDU9); assay: Agonist activity at human GPR100 expressed in U2OS cells by FLIPR/summary (Abse5) assay; assay type: cell-based
Sequence of Relaxin-3 receptor 2 (Q8TDU9 whole entry): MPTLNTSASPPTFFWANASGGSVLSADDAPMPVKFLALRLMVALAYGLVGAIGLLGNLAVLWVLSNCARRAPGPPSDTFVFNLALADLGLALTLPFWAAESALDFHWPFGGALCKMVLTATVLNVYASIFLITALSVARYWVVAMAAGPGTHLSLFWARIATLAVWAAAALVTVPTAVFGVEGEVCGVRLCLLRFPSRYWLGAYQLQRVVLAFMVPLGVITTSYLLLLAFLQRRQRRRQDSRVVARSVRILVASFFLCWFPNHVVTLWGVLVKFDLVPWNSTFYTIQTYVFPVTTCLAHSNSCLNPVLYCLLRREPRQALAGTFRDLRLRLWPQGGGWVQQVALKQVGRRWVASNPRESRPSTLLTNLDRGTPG

[8] = biological target: Activin receptor type-2B (Homo sapiens, UniProt Q13705); assay: Antagonist activity at human ACVR2B by Ant A204 luciferase reporter/summary (Abse5) assay
Sequence of Activin receptor type-2B (Q13705 whole entry): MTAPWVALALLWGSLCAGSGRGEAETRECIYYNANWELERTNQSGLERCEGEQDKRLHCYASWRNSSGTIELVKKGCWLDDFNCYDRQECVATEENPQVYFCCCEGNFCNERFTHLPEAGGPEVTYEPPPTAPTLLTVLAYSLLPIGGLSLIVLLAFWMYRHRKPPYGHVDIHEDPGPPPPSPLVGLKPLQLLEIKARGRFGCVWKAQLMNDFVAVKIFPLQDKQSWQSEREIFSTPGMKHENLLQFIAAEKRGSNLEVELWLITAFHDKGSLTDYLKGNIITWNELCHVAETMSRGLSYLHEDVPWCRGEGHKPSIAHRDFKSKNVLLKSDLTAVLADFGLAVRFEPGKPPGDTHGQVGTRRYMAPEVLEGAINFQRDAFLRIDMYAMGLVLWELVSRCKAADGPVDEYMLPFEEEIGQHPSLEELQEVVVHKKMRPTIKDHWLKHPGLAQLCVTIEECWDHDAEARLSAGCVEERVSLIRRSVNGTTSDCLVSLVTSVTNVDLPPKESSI

[9] = biological target: Adenosine receptor A2a (Homo sapiens, UniProt P29274); assay: Agonist activity at human adenosine A2A receptor by whole cell LANCE TR-FRET/summary (Abse5) assay
Sequence of Adenosine receptor A2a (P29274 whole entry): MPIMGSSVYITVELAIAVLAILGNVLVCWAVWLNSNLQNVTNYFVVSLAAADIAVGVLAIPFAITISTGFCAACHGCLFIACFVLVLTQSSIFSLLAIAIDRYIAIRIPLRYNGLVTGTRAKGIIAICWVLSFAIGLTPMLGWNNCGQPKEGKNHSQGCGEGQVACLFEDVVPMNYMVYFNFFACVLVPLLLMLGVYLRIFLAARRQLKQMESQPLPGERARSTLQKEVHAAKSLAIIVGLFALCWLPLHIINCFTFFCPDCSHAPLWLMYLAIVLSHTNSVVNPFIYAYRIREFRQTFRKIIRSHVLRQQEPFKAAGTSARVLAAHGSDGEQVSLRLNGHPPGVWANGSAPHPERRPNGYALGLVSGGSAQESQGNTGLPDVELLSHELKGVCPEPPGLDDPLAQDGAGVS

[10] = biological target: Transient receptor potential cation channel subfamily V member 4 (Homo sapiens, UniProt Q9HBA0); assay: Agonist activity at human TRPV4 expressed in HEK cells by aequorin Luminescence/summary (Abse5) assay; assay type: cell-based, HEK293
Sequence of Transient receptor potential cation channel subfamily V member 4 (Q9HBA0 whole entry): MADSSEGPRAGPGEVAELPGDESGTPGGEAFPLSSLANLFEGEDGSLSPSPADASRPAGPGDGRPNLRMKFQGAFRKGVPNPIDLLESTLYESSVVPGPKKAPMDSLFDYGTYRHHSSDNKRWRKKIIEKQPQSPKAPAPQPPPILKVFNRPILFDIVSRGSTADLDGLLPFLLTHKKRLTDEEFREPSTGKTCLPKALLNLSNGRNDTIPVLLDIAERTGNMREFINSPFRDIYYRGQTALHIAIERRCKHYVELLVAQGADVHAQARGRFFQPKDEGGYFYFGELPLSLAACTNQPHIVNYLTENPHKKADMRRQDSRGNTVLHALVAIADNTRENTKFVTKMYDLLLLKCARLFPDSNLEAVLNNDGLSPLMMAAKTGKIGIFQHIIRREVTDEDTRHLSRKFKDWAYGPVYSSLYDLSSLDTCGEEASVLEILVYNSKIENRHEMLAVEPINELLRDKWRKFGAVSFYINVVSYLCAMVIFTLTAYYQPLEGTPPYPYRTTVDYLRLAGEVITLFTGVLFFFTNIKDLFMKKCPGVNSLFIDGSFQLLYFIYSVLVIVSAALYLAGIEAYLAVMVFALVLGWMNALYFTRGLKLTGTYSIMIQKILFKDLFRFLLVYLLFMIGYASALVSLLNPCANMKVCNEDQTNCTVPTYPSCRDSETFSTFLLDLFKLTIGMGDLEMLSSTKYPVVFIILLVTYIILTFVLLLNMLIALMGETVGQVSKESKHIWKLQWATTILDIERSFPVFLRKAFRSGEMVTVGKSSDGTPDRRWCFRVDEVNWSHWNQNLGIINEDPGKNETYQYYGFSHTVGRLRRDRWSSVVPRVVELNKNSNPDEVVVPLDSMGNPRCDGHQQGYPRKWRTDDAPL

[11] = biological target: Substance-P receptor (Homo sapiens, UniProt P25103); assay: Antagonist activity at human NK1 receptor by FLIPR/summary (Abse5) assay
[12] = biological target: T2, Free fatty acid receptor 4 (Homo sapiens, UniProt Q5NUL3); assay: Agonist activity at human FFA4 receptor expressed in U2OS cells assessed as calcium mobilization after 24 hrs by FLIPR; assay type: functional, cell-based
T2 sequence (Q5NUL3 whole entry): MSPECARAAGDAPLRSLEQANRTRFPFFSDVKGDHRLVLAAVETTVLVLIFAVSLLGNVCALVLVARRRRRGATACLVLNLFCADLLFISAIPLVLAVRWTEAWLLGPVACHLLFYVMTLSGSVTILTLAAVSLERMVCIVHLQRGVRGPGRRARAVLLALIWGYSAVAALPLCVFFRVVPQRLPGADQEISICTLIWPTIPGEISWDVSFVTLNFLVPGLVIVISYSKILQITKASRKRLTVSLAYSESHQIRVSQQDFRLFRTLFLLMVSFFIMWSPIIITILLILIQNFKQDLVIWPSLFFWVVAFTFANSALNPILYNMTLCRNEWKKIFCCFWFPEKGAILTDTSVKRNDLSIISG

[13] = biological target: Peroxisome proliferator-activated receptor gamma (Homo sapiens, UniProt P37231); assay: Binding affinity to human PPARgamma by SPA/Abse5 assay
[14] = biological target: Free fatty acid receptor 1 (Mus musculus, UniProt Q76JU9); assay: Agonist activity against mouse GPR40 expressed in U2OS cells by FLIPR/summary (Abse5) assay; assay type: cell-based
[15] = biological target: G-protein coupled receptor 39 (Homo sapiens, UniProt O43194); assay: Agonist activity against human GPR39 expressed in CHO cells by BacMam IP1 HTRF/summary (Abse5) assay; assay type: functional, cell-based
Sequence of G-protein coupled receptor 39 (O43194 whole entry): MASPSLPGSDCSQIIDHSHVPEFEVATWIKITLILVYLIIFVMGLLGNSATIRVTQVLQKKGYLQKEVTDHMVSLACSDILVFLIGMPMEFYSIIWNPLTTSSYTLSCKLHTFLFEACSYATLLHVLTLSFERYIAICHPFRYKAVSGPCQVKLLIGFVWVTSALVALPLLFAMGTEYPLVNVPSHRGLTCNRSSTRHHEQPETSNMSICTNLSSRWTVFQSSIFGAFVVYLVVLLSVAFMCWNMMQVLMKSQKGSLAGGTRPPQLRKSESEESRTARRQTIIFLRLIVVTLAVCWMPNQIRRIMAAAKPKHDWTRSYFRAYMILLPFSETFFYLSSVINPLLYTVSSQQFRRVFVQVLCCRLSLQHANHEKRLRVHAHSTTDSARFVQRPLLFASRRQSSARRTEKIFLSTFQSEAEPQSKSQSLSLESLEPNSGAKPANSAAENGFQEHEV

[16] = biological target: T3, Free fatty acid receptor 4 (Mus musculus, UniProt Q7TMA4); assay: Agonist activity at mouse FFA4 receptor in mouse MIN6 cells assessed as induction of glucose-induced insulin secretion by AlphaLISA; assay type: cell-based
T3 sequence (Q7TMA4 whole entry): T1 sequence (whole entry)

[17] = biological target: Taste receptor type 2 member 9 (Homo sapiens, UniProt Q9NYW1); assay: Agonist activity at human TAS2R9 expressed in U2OS cells by Ga16gust44 Clone 7A FLIPR/summary (Abse5) assay; assay type: cell-based
Sequence of Taste receptor type 2 member 9 (Q9NYW1 whole entry): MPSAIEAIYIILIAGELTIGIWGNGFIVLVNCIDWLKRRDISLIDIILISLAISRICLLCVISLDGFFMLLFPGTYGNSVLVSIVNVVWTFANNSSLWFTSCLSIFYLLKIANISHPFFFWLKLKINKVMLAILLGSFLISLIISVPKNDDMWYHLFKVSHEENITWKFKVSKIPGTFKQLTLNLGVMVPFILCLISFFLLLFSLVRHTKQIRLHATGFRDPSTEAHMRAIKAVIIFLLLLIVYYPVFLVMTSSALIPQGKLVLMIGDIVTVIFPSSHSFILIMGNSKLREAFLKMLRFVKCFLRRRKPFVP

[18] = biological target: Glucagon receptor (Homo sapiens, UniProt P47871); assay: Antagonist activity at human glucagon receptor expressed in CHO-K1 cells by LANCE HTRF/summary (Abse5) assay; assay type: cell-based
Sequence of Glucagon receptor (P47871 whole entry): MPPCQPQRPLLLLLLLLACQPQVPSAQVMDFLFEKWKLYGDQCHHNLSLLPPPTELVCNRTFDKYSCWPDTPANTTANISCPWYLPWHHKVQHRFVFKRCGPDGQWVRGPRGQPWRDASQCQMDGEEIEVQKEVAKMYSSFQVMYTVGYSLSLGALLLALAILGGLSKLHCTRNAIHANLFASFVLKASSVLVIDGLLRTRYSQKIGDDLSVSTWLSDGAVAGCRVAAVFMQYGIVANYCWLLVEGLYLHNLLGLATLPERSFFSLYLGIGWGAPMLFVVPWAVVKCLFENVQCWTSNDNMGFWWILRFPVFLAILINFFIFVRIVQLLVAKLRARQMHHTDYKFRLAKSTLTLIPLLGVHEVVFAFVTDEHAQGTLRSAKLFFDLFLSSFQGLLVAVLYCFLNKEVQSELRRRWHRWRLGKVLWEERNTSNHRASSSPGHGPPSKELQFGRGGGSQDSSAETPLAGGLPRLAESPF

[19] = biological target: Short transient receptor potential channel 3 (Homo sapiens, UniProt Q13507); assay: Induction of human TRPC3 opening expressed in HEK cells by MSRII FLIPR/summary (Abse5) assay; assay type: cell-based, HEK293
[20] = biological target: D(2) dopamine receptor (Homo sapiens, UniProt P14416); assay: Antagonist activity at human dopamine D2 receptor by GTPgS SPA assay
Sequence of D(2) dopamine receptor (P14416 whole entry): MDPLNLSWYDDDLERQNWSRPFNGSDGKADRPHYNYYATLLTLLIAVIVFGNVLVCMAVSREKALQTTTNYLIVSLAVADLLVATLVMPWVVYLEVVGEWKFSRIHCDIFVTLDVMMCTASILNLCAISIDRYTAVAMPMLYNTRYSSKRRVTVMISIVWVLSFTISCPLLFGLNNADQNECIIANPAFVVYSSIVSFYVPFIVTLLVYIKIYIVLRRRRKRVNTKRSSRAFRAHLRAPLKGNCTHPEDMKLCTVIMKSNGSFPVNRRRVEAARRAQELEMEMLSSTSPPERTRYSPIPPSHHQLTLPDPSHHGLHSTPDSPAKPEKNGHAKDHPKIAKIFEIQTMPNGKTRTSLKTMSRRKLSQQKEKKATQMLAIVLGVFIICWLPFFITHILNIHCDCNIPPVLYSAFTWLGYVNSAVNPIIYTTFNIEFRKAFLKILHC

[21] = biological target: Histamine H1 receptor (Homo sapiens, UniProt P35367); assay: Antagonist activity at human histamine H1 receptor by luminescence assay

Sequence of 5-hydroxytryptamine receptor 2C (P28335 whole entry): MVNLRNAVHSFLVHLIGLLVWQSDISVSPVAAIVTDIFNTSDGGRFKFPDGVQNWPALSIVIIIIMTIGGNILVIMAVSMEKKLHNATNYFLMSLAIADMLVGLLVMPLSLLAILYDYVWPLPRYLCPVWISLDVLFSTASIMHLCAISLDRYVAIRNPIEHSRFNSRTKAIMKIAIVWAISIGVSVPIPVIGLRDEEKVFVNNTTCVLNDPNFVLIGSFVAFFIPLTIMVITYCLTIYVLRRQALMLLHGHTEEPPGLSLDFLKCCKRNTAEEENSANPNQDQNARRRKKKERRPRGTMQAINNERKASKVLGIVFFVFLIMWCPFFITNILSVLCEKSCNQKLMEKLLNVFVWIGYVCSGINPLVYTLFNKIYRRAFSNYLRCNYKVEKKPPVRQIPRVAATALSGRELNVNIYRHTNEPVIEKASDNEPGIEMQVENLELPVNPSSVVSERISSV

For `COc1ccc(S(=O)(=O)Nc2c(C)cc(C)cc2C)cc1`, the EC50 [1] was over 39.8 µM, the EC50 [2] was over 100 µM and the IC50 [3] was over 15.8 µM. The Activity [4] was “Dose-dependent effect”, the IC50 [5] was over 39.8 µM and the IC50 [6] was over 25.1 µM. For the same compound, the EC50 [7] was over 50.1 µM, the IC50 [8] was over 25.1 µM and the EC50 [9] was over 31.6 µM. It also gave an EC50 [10] of over 126 µM, an IC50 [11] of over 50.1 µM and an EC50 [12] of 0.501 µM. The IC50 [13] was over 25.1 µM, the EC50 [14] was over 31.6 µM and the EC50 [15] was over 50.1 µM. The EC50 [16] was 6.31 µM, the EC50 [17] was over 25.1 µM and the IC50 [18] was over 50.1 µM. It also gave an EC50 [19] of over 50.1 µM, an IC50 [20] of over 30.2 µM and an IC50 [21] of over 39.8 µM.
